The values that follow come from patent US20090081717A1, “Compositions and Methods For Signal Generation” (priority 2007, published 2009).

Molecules are shown by their SMILES. Read-outs that look alike come from different tables or passages of the source.

In one test the test system is alkaline phosphatase. Particulars: 1×10^−12 moles alkaline phosphatase in 0.1 M Tris, pH 9.0, 45 sec at room temperature, measured 1 sec. The method, then:
A substrate solution containing 0.8 mg/ml 3-indoxyl phosphate bis(2-amino-2-methyl-1,3-propanediol) salt (Biosynth International) and 0.4 mg/ml lucigenin (Sigma Aldrich) was prepared in 0.1 M Tris buffer, pH 9.0. 10 ul of the sample (blank (0.1 M Tris, pH 9.0 or 1×10^−12 moles alkaline phosphatase in 0.1 M Tris, pH 9.0) was added to plastic tubes. 50 ul of the substrate containing 0% DMSO, 0.1% DMSO (v/v), 1% DMSO) (v/v), 10% DMSO (v/v) and 20% DMSO (v/v) was added to respective tubes and water was added to the substrate in appropriate percentage as a control. The reaction was incubated for 45 sec at room temperature and chemiluminescence was measured for 1 sec using an Optocomp I (MGM) luminometer.

Test [1] in a line: Chemiluminescence of indoxyl phosphate substrate solution with blank sample (no enzyme). The format is biochemical. The settings on record: blank sample 0.1 M Tris, pH 9.0, no enzyme.

Turning to `CC(N)(CO)CO.CC(N)(CO)CO.O=P(O)(O)Oc1c[nH]c2ccccc12` [3-indoxyl phosphate bis(2-amino-2-methyl-1,3-propanediol) salt], the Alkaline phosphatase chemiluminescence in the test on alkaline phosphatase (substrate with 0 vol % DMSO) is recorded as 895,068 Relative light unit; in the test with alkaline phosphatase (substrate with 0.1 vol % DMSO) it was 899,207 Relative light unit; in the test with alkaline phosphatase (substrate with 1 vol % DMSO) it was 1,101,369 Relative light unit; in the test on alkaline phosphatase (substrate with 10 vol % DMSO), 1,909,745 Relative light unit; in the test on alkaline phosphatase (substrate with 20 vol % DMSO), 2,375,681 Relative light unit. Moreover, the Blank chemiluminescence in test [1] (substrate with 0 vol % DMSO) came to 472 Relative light units; in test [1] (substrate with 0.1 vol % DMSO), 511 Relative light units; in test [1] (substrate with 1 vol % DMSO) it was 569 Relative light units; in test [1] (substrate with 10 vol % DMSO), 1214 Relative light units; in test [1] (substrate with 20 vol % DMSO), 1917 Relative light units.
